How the values were obtained:
Test in all cases: relative viability (nuclei count vs DMSO), 5 days (fraction); higher = more cells survive
Selumetinib + Bortezomib = compound: Cn1cnc2c(F)c(Nc3ccc(Br)cc3Cl)c(C(=O)NOCCO)cc21 [Selumetinib] + CC(C)C[C@H](NC(=O)[C@H](Cc1ccccc1)NC(=O)c1cnccn1)B(O)O [Bortezomib] (partner 0.002 µM)
In short: (§1)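 Relative viability is defined as nuclei in treated wells over nuclei in vehicle wells. Duplicate plates were run and medians reported. Lung cancer cell lines in 1536-well plates were dosed by pin tool one day after seeding, with one drug or with a fixed anchor-drug dose plus five library-drug doses (not always all listed) in √10 steps, and nuclei were counted after 5 days.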

Selumetinib + Linsitinib = compound: Cn1cnc2c(F)c(Nc3ccc(Br)cc3Cl)c(C(=O)NOCCO)cc21 [Selumetinib] + C[C@]1(O)C[C@@H](c2nc(-c3ccc4ccc(-c5ccccc5)nc4c3)c3c(N)nccn32)C1 [Linsitinib] (partner 1 µM)
In short: as §1

Venetoclax + Tozasertib = compound: CC1(C)CCC(CN2CCN(c3ccc(C(=O)NS(=O)(=O)c4ccc(NCC5CCOCC5)c([N+](=O)[O-])c4)c(Oc4cnc5[nH]ccc5c4)c3)CC2)=C(c2ccc(Cl)cc2)C1 [Venetoclax] + Cc1cc(Nc2cc(N3CCN(C)CC3)nc(Sc3ccc(NC(=O)C4CC4)cc3)n2)n[nH]1 [Tozasertib] (partner 0.1 µM)
In short: as §1

Selumetinib + Foretinib = compound: Cn1cnc2c(F)c(Nc3ccc(Br)cc3Cl)c(C(=O)NOCCO)cc21 [Selumetinib] + COc1cc2c(Oc3ccc(NC(=O)C4(C(=O)Nc5ccc(F)cc5)CC4)cc3F)ccnc2cc1OCCCN1CCOCC1 [Foretinib] (partner 0.25 µM)
In short: as §1

Cell Line	relative viability (Selumetinib + Bortezomib; first compound 0.02 µM)	relative viability (Selumetinib + Bortezomib; first compound 0.06325 µM)	relative viability (Selumetinib + Bortezomib; first compound 0.2 µM)	relative viability (Selumetinib + Bortezomib; first compound 0.6325 µM)	relative viability (Selumetinib + Linsitinib; first compound 0.02 µM)	relative viability (Selumetinib + Linsitinib; first compound 0.06325 µM)	relative viability (Selumetinib + Linsitinib; first compound 0.2 µM)	relative viability (Selumetinib + Linsitinib; first compound 0.6325 µM)	relative viability (Venetoclax + Tozasertib; first compound 0.01 µM)	relative viability (Venetoclax + Tozasertib; first compound 0.03162 µM)	relative viability (Venetoclax + Tozasertib; first compound 0.1 µM)	relative viability (Venetoclax + Tozasertib; first compound 0.3162 µM)	relative viability (Venetoclax + Tozasertib; first compound 1 µM)	relative viability (Selumetinib + Foretinib; first compound 0.02 µM)	relative viability (Selumetinib + Foretinib; first compound 0.06325 µM)	relative viability (Selumetinib + Foretinib; first compound 0.2 µM)	relative viability (Selumetinib + Foretinib; first compound 0.6325 µM)
LCLC-97TM1	0.522	0.379	0.294	0.157	0.227	0.193	0.207	0.2	0.302	0.27	0.207	0.185	0.202	0.898	0.818	0.585	0.525
NCI-H1355	1.18	1.17	0.884	0.822	0.72	0.744	0.734	0.555	0.548	0.62	0.482	0.549	0.42	0.954	0.847	0.539	0.625
NCI-H596	0.92	0.93	0.835	0.621	1.07	1.02	1.01	0.776	1.05	0.74	0.966	0.862	0.847	0.832	0.781	0.696	0.653
NCI-H2085	1	0.947	0.926	0.916	0.863	0.82	0.737	0.763	0.833	0.77	0.757	0.761	0.815	0.728	0.829	0.536	0.567
201T	1.11	1	1.01	0.994	0.987	0.978	0.949	0.932	0.826	0.957	0.945	0.91	0.941	0.977	0.978	1.05	0.874
NCI-H2405	0.971	0.928	0.858	0.744	0.77	0.575	0.546	0.392	0.741	0.783	0.632	0.736	0.645	1.05	0.983	0.909	0.545
LXF-289	0.934	0.891	0.8	0.748	1	0.853	0.745	0.719	0.217	0.218	0.187	0.216	0.213	0.939	0.867	0.738	0.737
LC-2-ad	1.05	1.01	0.831	0.943	0.824	0.801	0.653	0.9	0.418	0.398	0.425	0.535	0.433	0.828	0.722	0.643	0.533
NCI-H2126	1.09	1.01	0.984	0.996	0.679	0.674	0.595	0.538	0.822	0.791	0.867	0.86	0.759	1.13	0.993	1.05	0.933

Source: the supplement of paper PMC10307832
